From patent US5187168A, “Substituted quinazolines as angiotensin II antagonists” (American Home Products Corporation, priority 1991, dated 1993)

System: A II-infused rat
Assay: A II-infused rat model (ganglion-blocked, intraduodenal dosing), antihypertensive action
Format: in vivo
Settings: 10 mg/kg id, one half hour post-administration
Experimental: In accordance with their ability to antagonize angiotensin II, the compounds of this invention show antihypertensive action in the following A II-infused rat model. Rats are anesthetized with Dial-Urethane (0.60 mL/kg, ip) and the trachea cannulated with PE 240. Either one femoral artery and both femoral veins or the carotid artery and the corresponding jugular vein are cannulated with PE 50. If the jugular vein is cannulated, two cannulas are placed in the one vein. The initial portion of the duodenum (just distal to the stomach) is cannulated with PE 50 via a small midline incision. Arterial pressure and heart rate are measured from the arterial cannula. Ten to 15 min are allowed following surgery for stabilization of arterial pressure. Ganglion blockade is then produced by intravenous administration of mecamylamine at 3 mg/kg (1 mL/kg of a 3 mg/mL solution). Ganglion blockade causes a fall in arterial pressure of about 50 mmHg. Mecamylamine is given every 90 min throughout the remainder of the experiment. An A II infusion is then begun into the other venous cannula at […] (at 9.6 uLmin). The A II infusion returns arterial pressure to or slightly above the control level. Once arterial pressure has stabilized with the A II infusion, baseline values for mean arterial pressure (MAP) and heart rate are taken. […]

O=C(O)c1ccccc1-c1ccc(CNc2nc(C(F)(F)F)nc3ccsc23)cc1 [Example 36] was tested, and the “lowering of the A II dependent blood pressure (average)” value was 45%.
